In US20040224995A1 (University of North Texas Health Science Center at Fort …, priority 2003, published 2004):

Columns and labels:
HT-22 cells [1] = assay: HT-22 cell viability during H2O2 exposure (calcein AM assay); assay type: cell-based, mouse; conditions: for pre-incubation required to achieve significant neuroprotection from H2O2 toxicity / protection against H2O2: HT-22; for concentrations toxic to HT-22 cells: HT-22, H2O2 experiments; for protection against H2O2: 24 h pretreatment, 30 μM H2O2; for protection when given after the H2O2 insult: post-treatment
Protocol: HT-22 cultures were incubated with different concentrations of the three compounds for 24 hours prior to the insult. […] Peak neuroprotective concentrations for 15d-PGJ2 ranged from […]. […] Additionally, we determined the effects of 15d-PGJ2 and troglitazone on HT-22 cells protection against another type of pro-oxidant insult, hydrogen peroxide H2O2. […] Higher concentrations (>10 μM and >20 μM) of 15 dPGJ2 and troglitazone, respectively, were toxic to HT-22 cells. […] HT-22 cells were pre-treated with 15d-PGJ2 for 24 hours. Thirty micromolar of H2O2 was then administered, and cell viability was determined 24 hours later. The cell viability is expressed as a % survival of the control (non-peroxide treated) cultures. DMSO received the vehicle only for 15d-PGJ2. Shown in FIG. 23 are the mean±SEM for n>6 cultures/group. The asterisk (“*”) indicates p<0.05 versus respective control.
(§1) The WY-14643, Ciglitazone, Troglitazone, 9-cis retinoic acid, and 15d-PGJ2 compounds were purchased from Biomol (Plymouth Meeting, Pa.). L-165041 and L-783483 were kindly provided by Merck Laboratories. The cell lines used were HT-22, an immortalized mouse hippocampal cell line, and SK—N—SH, a human neuroblastoma cell line. The HT-22 cells were obtained from David Schubert (Salk Institute, San Diego, Calif.). The HT-22 line was originally selected from HT-4 cells based on glutamate sensitivity. HT-4 cells were immortalized from primary hippocampal neurons using a temperature-sensitive SV-40 T antigen (Morimoto and Koshland, 1990). SK—N—SH were obtained from ATCC (Manassas, Va.). HT-22 and SK—N—SH cells were grown to confluence in DMEM and RPMI-1640 media, respectively, and supplemented with 10% charcoal/dextran-treated fetal bovine serum (FBS), and 5 mg/ml gentamycin at 37° C. under 95% air, 5% CO2. HT-22 cells were plated at a density of 50,000 cells/ml (5,000 cells/well), and SK—N—SH were plated at a density of 120,000 to 150,000 cells/ml (12,000 to 15,000 cells/well) in 96-well plates. In most studies, wells were pre-treated with PPAR ligands over a wide dose range at various times prior to being subjected to either glutamate, hydrogen peroxide (H2O2), or serum deprivation insults. In some studies, the insults were applied prior to the addition of the PPAR ligand.
(§2) The cell viability assays were conducted about 14 to 24 hours post-insult time, viability of cells was determined using 2.5 μM Calcein AM assay in phosphate-buffered saline (PBS). After 25 minutes of incubation, live cells were distinguished by the presence of intracellular esterase activity, which cleaves the calcein AM dye, producing a bright green fluorescence. Viability was measured in Relative Fluorescent Units (“RFU”), and expressed as percentage of vehicle-treated control values. The calcein assay was designed to produce results that accurately reflect viable cell numbers. At cell concentrations below 10,000 cells per well (96-well plate) a linear relationship between RFU and cell number is achieved (r^2=0.9997, data not shown).

HT-22 cells [2] = assay: HT-22 serum deprivation toxicity; assay type: cell-based, mouse; conditions: for protection against serum deprivation: 24 h in 10% FBS with compound, then about 12 h serum free medium; for concentration enhancing serum deprivation-induced toxicity: HT-22
Protocol: The effects of pretreatment of HT-22 cells with PPARγ agonists on serum deprivation toxicity were also studied. We examined whether 15d-PGJ2 or troglitazone have neuroprotective activity against serum deprivation toxicity. HT-22 cells were incubated for 24 hours in 10% FBS medium containing either 15d-PGJ2 or troglitazone. Then, cells were exposed for about 12 hours to a serum free medium with both of the compounds present. […] In addition, 15d-PGJ2 and troglitazone enhanced the serum deprivation-induced toxicity at or above 10 μM and 20 μM, respectively.
as §1, §2

C6 Glioma cells = assay: C6 glioma glutamate cytotoxicity; assay type: cell-based, rat; conditions: dose dependent manner
Protocol: (§3) The in vitro model used for oxidative cell death was based upon glutamate, hydrogen peroxide, and buthionine sulfoximine (“BSO”) administration to HT-22 mouse hippocampal, C6 rat glioma, and RGC-5 retinal ganglion cell lines. The ease that the above cell lines are cultured is well known in the art of cell culture. Additionally, these cell lines are suitable for screening a various number of compounds described in the present invention.
(§4) Although not wanting to be bound by theory, the toxicity of glutamate in HT-22 (32) and C6 glioma (33) cell lines is mediated through oxidative stress. HT-22 cells lack ionotropic N-methyl-D-aspartate (“NMDA”) glutamate receptors, and the glutamate-induced cell death appears to occur via a slow onset oxidative stress (32,34,35). Glutamate blocks cystine uptake by inhibiting the glutamate/cystine antiporter in both HT-22 (32) and C6 glioma (33) cell lines. […] In some of the experiments, the viability of cells was determined using 2.5 μM calcein AM assay in phosphate-buffered saline (PBS 1×). After 25 minutes of incubation, live cells were distinguished by the presence of intracellular esterase activity, which cleaves the calcein AM dye, producing a bright green fluorescence, as shown in FIG. 22. Viability was measured in Relative Fluorescent Units (“RFU”), and expressed as percentage of vehicle-treated control values. […]

RGC-5 cells = assay: RGC-5 glutamate cytotoxicity; assay type: cell-based; conditions: dose dependent manner
Protocol: as §3, §4

SMILES | pre-incubation required to achieve significant neuroprotection from H2O2 toxicity (HT-22 cells [1]) | concentrations toxic to HT-22 cells (HT-22 cells [1]) | protection against H2O2 (HT-22 cells [1]) | protection when given after the H2O2 insult (HT-22 cells [1]) | protection against serum deprivation (HT-22 cells [2]) | concentration enhancing serum deprivation-induced toxicity (HT-22 cells [2]) | protection against glutamate toxicity (C6 Glioma cells) | protection against glutamate toxicity (RGC-5 cells)
CCCCC/C=C/C=C1/C(=O)C=C[C@@H]1C/C=C\CCCC(=O)O [15d-PGJ2, 15-deoxy-Δ^12,14-PGJ2] | 4 h | above 10 μM | dose-dependent protection | Neither 15dPGJ2 nor troglitazone protected | failed to protect | ≥ 10 µM | protected | protected
Cc1c(C)c2c(c(C)c1O)CCC(C)(COc1ccc(CC3SC(=O)NC3=O)cc1)O2 (stereo not shown) [troglitazone] | 4 h | > 20 µM | dose-dependent protection | Neither 15dPGJ2 nor troglitazone protected | failed to protect | ≥ 20 µM | protected | protected
